The values that follow come from PubChem BioAssay AID272 (DTP/NCI, 2004).

The assay relates to Lewis lung carcinoma i.m., BDF1 mice, T/C %. Nature of the assay: NCI In Vivo Anticancer Drug Screen. Data for tumor model Lewis Lung Carcinoma (intramuscular) in B6D2F1 (BDF1) mice. The method in brief: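 Compound given to mice with transplantable tumours; survival or tumour size compared against the vehicle control group, reported as T divided by C.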
Where [1] appears, read: endpoint: mean tumor weight (est.), dose: 50.0 mg/kg/injection, schedule: Q01DX011 (ip), vehicle: saline with Tween-80, higher = larger tumour.
[2] abbreviates: endpoint: mean tumor weight (est.), dose: 100.0 mg/kg/injection, schedule: Q01DX011 (ip), vehicle: saline with Tween-80, higher = larger tumour.
Setting [3] is: endpoint: mean tumor weight (est.), dose: 200.0 mg/kg/injection, schedule: Q01DX011 (ip), vehicle: saline with Tween-80, higher = larger tumour.
Setting [4] is: endpoint: mean tumor weight (est.), dose: 400.0 mg/kg/injection, schedule: Q01DX011 (ip), vehicle: saline with Tween-80, higher = larger tumour.
The mark [5] stands for this setting: endpoint: median survival time, dose: 50.0 mg/kg/injection, schedule: Q01DX011 (ip), vehicle: saline with Tween-80, higher = longer survival.
The mark [6] stands for this setting: endpoint: median survival time, dose: 100.0 mg/kg/injection, schedule: Q01DX011 (ip), vehicle: saline with Tween-80, higher = longer survival.
Setting [7] is: endpoint: median survival time, dose: 200.0 mg/kg/injection, schedule: Q01DX011 (ip), vehicle: saline with Tween-80, higher = longer survival.
[8] abbreviates: endpoint: median survival time, dose: 400.0 mg/kg/injection, schedule: Q01DX011 (ip), vehicle: saline with Tween-80, higher = longer survival.
The mark [9] stands for this setting: endpoint: mean tumor weight (est.), dose: 12.5 mg/kg/injection, schedule: Q01DX011 (ip), vehicle: saline with Tween-80, higher = larger tumour.
The mark [10] stands for this setting: endpoint: mean tumor weight (est.), dose: 25.0 mg/kg/injection, schedule: Q01DX011 (ip), vehicle: saline with Tween-80, higher = larger tumour.
[11] abbreviates: endpoint: median survival time, dose: 2.0 mg/kg/injection, schedule: Q01DX011 (ip), vehicle: saline with Tween-80, higher = longer survival.
Setting [12] is: endpoint: median survival time, dose: 4.0 mg/kg/injection, schedule: Q01DX009 (ip), vehicle: water, higher = longer survival.
Setting [13] is: endpoint: median survival time, dose: 8.0 mg/kg/injection, schedule: Q01DX009 (ip), vehicle: water, higher = longer survival.

Results filed as inconclusive are left out.

For the molecule `COc1cc(OC)c(OC)cc1/C=C\c1ccnc2ccccc12`, the T/C runs as follows: under setting [1], 60 % of control; under setting [2], 51 % of control; under setting [3], 56 % of control; under setting [4], 34 % of control; under setting [5], 105 % of control; under setting [6], 103 % of control. Besides, the T/C runs as follows: under setting [7], 86 % of control; under setting [8], 100 % of control.

In the case of `Nc1cc(S(N)(=O)=O)ccc1SSc1ccc(S(N)(=O)=O)cc1N`, the T/C runs as follows: (endpoint: mean tumor weight (est.), dose: 62.5 mg/kg/injection, schedule: Q01DX011 (ip), vehicle: saline with Tween-80, higher = larger tumour) 65 % of control; (endpoint: mean tumor weight (est.), dose: 125.0 mg/kg/injection, schedule: Q01DX011 (ip), vehicle: saline with Tween-80, higher = larger tumour) 24 % of control; (endpoint: median survival time, dose: 62.5 mg/kg/injection, schedule: Q01DX011 (ip), vehicle: saline with Tween-80, higher = longer survival) 103 % of control; (endpoint: median survival time, dose: 125.0 mg/kg/injection, schedule: Q01DX011 (ip), vehicle: saline with Tween-80, higher = longer survival) 98 % of control.

Consider `CCCCCCCCCCCC[S+](C)C`, for which the T/C is 100 % of control (endpoint: median survival time, dose: 2.0 mg/kg/injection, schedule: Q01DX011 (ip), vehicle: saline, higher = longer survival) and 114 % of control (endpoint: median survival time, dose: 4.0 mg/kg/injection, schedule: Q01DX011 (ip), vehicle: saline, higher = longer survival).

As for `Cc1cc(C)c(C(=O)CC(=O)c2cccnc2)c(C)c1`, the T/C runs as follows: (endpoint: mean tumor weight (est.), dose: 8.75 mg/kg/injection, schedule: Q01DX011 (ip), vehicle: other, higher = larger tumour) 69 % of control; (endpoint: mean tumor weight (est.), dose: 17.5 mg/kg/injection, schedule: Q01DX011 (ip), vehicle: other, higher = larger tumour) 70 % of control; (endpoint: mean tumor weight (est.), dose: 35.0 mg/kg/injection, schedule: Q01DX011 (ip), vehicle: other, higher = larger tumour) 93 % of control; (endpoint: mean tumor weight (est.), dose: 70.0 mg/kg/injection, schedule: Q01DX011 (ip), vehicle: other, higher = larger tumour) 83 % of control; (endpoint: median survival time, dose: 8.75 mg/kg/injection, schedule: Q01DX011 (ip), vehicle: other, higher = longer survival) 92 % of control; (endpoint: median survival time, dose: 17.5 mg/kg/injection, schedule: Q01DX011 (ip), vehicle: other, higher = longer survival) 106 % of control. Besides, the T/C reads like this: (endpoint: median survival time, dose: 35.0 mg/kg/injection, schedule: Q01DX011 (ip), vehicle: other, higher = longer survival) 106 % of control; (endpoint: median survival time, dose: 70.0 mg/kg/injection, schedule: Q01DX011 (ip), vehicle: other, higher = longer survival) 94 % of control.

Regarding `CCCCn1cnc2c(N)ncnc21`, the T/C under setting [9] was 81 % of control; the T/C under setting [10] was 95 % of control; the T/C under setting [1] was 77 % of control; the T/C (endpoint: median survival time, dose: 12.5 mg/kg/injection, schedule: Q01DX011 (ip), vehicle: saline with Tween-80, higher = longer survival) is 93 % of control; the T/C (endpoint: median survival time, dose: 25.0 mg/kg/injection, schedule: Q01DX011 (ip), vehicle: saline with Tween-80, higher = longer survival) was 97 % of control; the T/C under setting [5] is 87 % of control.

In the case of `CCCCCCCCCCCC[N+](C)(C)C` (tested in a mixture with another compound), the T/C (endpoint: median survival time, dose: 6.25 mg/kg/injection, schedule: Q01DX011 (ip), vehicle: saline, higher = longer survival) was 110 % of control.

As to `CSC(=S)N/N=C/c1ccccn1`, the T/C under setting [9] was 67 % of control, the T/C under setting [10] was 92 % of control and the T/C under setting [1] is 50 % of control.

Consider `CC(=O)OC1CC(OC2C(O)CC(OC3C(O)CC(OC4CCC5(C)C(CCC6C5CCC5(C)C(C7=CC(=O)OC7)C(O)CC65O)C4)OC3C)OC2C)OC(C)C1OC1OC(CO)C(O)C(O)C1O` (configuration not stated), for which the T/C (endpoint: median survival time, dose: 3.0 mg/kg/injection, schedule: Q01DX011 (ip), vehicle: saline, higher = longer survival) is 106 % of control; the T/C (endpoint: median survival time, dose: 6.0 mg/kg/injection, schedule: Q01DX011 (ip), vehicle: saline, higher = longer survival) was 110 % of control; the T/C (endpoint: median survival time, dose: 12.0 mg/kg/injection, schedule: Q01DX011 (ip), vehicle: saline, higher = longer survival) is 102 % of control; the T/C (endpoint: median survival time, dose: 24.0 mg/kg/injection, schedule: Q01DX011 (ip), vehicle: saline, higher = longer survival) is 104 % of control; the T/C (endpoint: median survival time, dose: 48.0 mg/kg/injection, schedule: Q01DX011 (ip), vehicle: saline, higher = longer survival) was 102 % of control.

As for `CC(=N/NC(N)=S)/C(C)=N/NC(N)=S`, the T/C is 73 % of control under setting [2]; 65 % of control under setting [3]; 42 % of control under setting [4]; 93 % of control under setting [6]; 91 % of control under setting [7]; 91 % of control under setting [8].

Turning to `Cc1n(CC(C)C)c2c([n+]1C)C(=O)c1ccccc1C2=O`, the T/C runs as follows: (endpoint: mean tumor weight (est.), dose: 2.0 mg/kg/injection, schedule: Q01DX011 (ip), vehicle: saline with Tween-80, higher = larger tumour) 40 % of control; under setting [11], 91 % of control.

Consider `CC1(C)N=C(N)N=C(N)N1c1ccc(CCc2ccccc2)cc1`, for which the T/C is 84 % of control (endpoint: mean tumor weight, dose: 12.5 mg/kg/injection, schedule: Q01DX011 (ip), vehicle: saline, higher = larger tumour); 46 % of control (endpoint: mean tumor weight, dose: 25.0 mg/kg/injection, schedule: Q01DX011 (ip), vehicle: saline, higher = larger tumour); 104 % of control (endpoint: median survival time, dose: 12.5 mg/kg/injection, schedule: Q01DX011 (ip), vehicle: saline, higher = longer survival); 89 % of control (endpoint: median survival time, dose: 25.0 mg/kg/injection, schedule: Q01DX011 (ip), vehicle: saline, higher = longer survival).

In the case of `NC(=O)c1cc(N2CC2)c([N+](=O)[O-])cc1[N+](=O)[O-]`, the T/C (endpoint: mean tumor weight, dose: 10.0 mg/kg/injection, schedule: Q01DX011 (ip), vehicle: saline with Tween-80, higher = larger tumour) is 100 % of control; the T/C (endpoint: mean tumor weight, dose: 20.0 mg/kg/injection, schedule: Q01DX011 (ip), vehicle: saline with Tween-80, higher = larger tumour) was 52 % of control; the T/C (endpoint: mean tumor weight, dose: 40.0 mg/kg/injection, schedule: Q01DX011 (ip), vehicle: saline with Tween-80, higher = larger tumour) is 5 % of control; the T/C (endpoint: median survival time, dose: 10.0 mg/kg/injection, schedule: Q01DX011 (ip), vehicle: saline with Tween-80, higher = longer survival) was 94 % of control; the T/C (endpoint: median survival time, dose: 20.0 mg/kg/injection, schedule: Q01DX011 (ip), vehicle: saline with Tween-80, higher = longer survival) was 116 % of control; the T/C (endpoint: median survival time, dose: 40.0 mg/kg/injection, schedule: Q01DX011 (ip), vehicle: saline with Tween-80, higher = longer survival) was 88 % of control.

`ClC1(c2ccccc2)c2ccc(Br)cc2-c2cc(Br)ccc21`: the T/C runs as follows: (endpoint: mean tumor weight (est.), dose: 100.0 mg/kg/injection, schedule: Q01DX011 (ip), vehicle: saline, higher = larger tumour) 53 % of control; (endpoint: mean tumor weight (est.), dose: 200.0 mg/kg/injection, schedule: Q01DX011 (ip), vehicle: saline, higher = larger tumour) 40 % of control; (endpoint: median survival time, dose: 100.0 mg/kg/injection, schedule: Q01DX011 (ip), vehicle: saline, higher = longer survival) 88 % of control; (endpoint: median survival time, dose: 200.0 mg/kg/injection, schedule: Q01DX011 (ip), vehicle: saline, higher = longer survival) 88 % of control.

For `Cn1c(Cl)nc2c(Cl)nc(Cl)nc21`, the T/C (endpoint: median survival time, dose: 1.0 mg/kg/injection, schedule: Q01DX011 (ip), vehicle: saline with Tween-80, higher = longer survival) was 102 % of control; the T/C under setting [11] was 106 % of control; the T/C (endpoint: median survival time, dose: 4.0 mg/kg/injection, schedule: Q01DX011 (ip), vehicle: saline with Tween-80, higher = longer survival) is 102 % of control; the T/C (endpoint: median survival time, dose: 8.0 mg/kg/injection, schedule: Q01DX011 (ip), vehicle: saline with Tween-80, higher = longer survival) was 104 % of control; the T/C (endpoint: median survival time, dose: 16.0 mg/kg/injection, schedule: Q01DX011 (ip), vehicle: saline with Tween-80, higher = longer survival) was 110 % of control.

For the molecule `CCCSc1ncnc2nc[nH]c12`, the T/C is, setting by setting: (endpoint: mean tumor weight, dose: 25.0 mg/kg/injection, schedule: Q01DX011 (ip), vehicle: other, higher = larger tumour) 80 % of control; (endpoint: median survival time, dose: 25.0 mg/kg/injection, schedule: Q01DX011 (ip), vehicle: other, higher = longer survival) 102 % of control.

Take `Cc1nc(N)c(C)c(C(=O)O)n1`: the T/C under setting [12] was 110 % of control; the T/C under setting [13] was 105 % of control; the T/C (endpoint: median survival time, dose: 64.0 mg/kg/injection, schedule: Q01DX009 (ip), vehicle: water, higher = longer survival) is 92 % of control.

As for `Cc1c(C(=O)O)nc(/C=C/C(=O)O)[nH]c1=O`, the T/C is, setting by setting: under setting [12], 105 % of control; under setting [13], 108 % of control; (endpoint: median survival time, dose: 16.0 mg/kg/injection, schedule: Q01DX009 (ip), vehicle: water, higher = longer survival) 108 % of control.
